Values of other authors as cited in patent US20220054615A1 (priority 2018, published 2022).

How the values were obtained:
IgG2a = conditions: mouse, in vivo
[1] = test system: human peripheral blood mononuclear cells (PBMCs)

CCCCCCCCCCCC(=O)CC(=O)N[C@H](COCC[C@@H](CCCCCCC)OC(=O)CCCCCCCCCCC)COP(=O)([O-])OCCNC(=O)NCCOP(=O)([O-])OC[C@@H](COCC[C@@H](CCCCCCC)OC(=O)CCCCCCCCCCC)NC(=O)CC(=O)CCCCCCCCCCC.[Na+].[Na+] [E6020, dodecanoic acid, (1R,6R, 22R, 27R)-1,27-dihexyl-9,19-dihydroxy-9,19-dioxido-14-oxo-6,22-bis [(1,3-di oxotetradecyl)amino]-4,8,10, 18, 20, 24-hexaoxa-13,15-di aza-9,19-dephosphaheptacosane-1,27-diyl ester, disodium salt]
enhance: IgG2a (IgG2a) | GM-CSF, IL-1, IL-6 and TNF-α [1] | GM-CSF, IL-1, IL-6 and TNF-α (mouse spleen)
